# According to ChEMBL document CHEMBL4261593, “Synthesis and antibacterial activity of novel 3-O-arylalkylcarbamoyl-3-O-descladinosyl-9-O-(2-chlorobenzyl)oxime clarithromycin derivatives” (2018):
# Assays:
# Assay type in all cases: functional
# Streptococcus pyogenes [1] = assay: Antibacterial activity against erythromycin-susceptible Streptococcus pyogenes 1 after 24 hrs by broth dilution assay; conditions: Streptococcus pyogenes, 1, 24 h
# Staphylococcus aureus [2] = assay: Antibacterial activity against erythromycin-susceptible Staphylococcus aureus ATCC 25923 after 24 hrs by broth dilution assay; conditions: ATCC 25923, 24 h
# Escherichia coli = assay: Antibacterial activity against penicillin-susceptible Escherichia coli ATCC 25922 after 24 hrs by broth dilution assay; conditions: ATCC 25922, 24 h
# Pseudomonas aeruginosa = assay: Antibacterial activity against penicillin-susceptible Pseudomonas aeruginosa ATCC 27853 after 24 hrs by broth dilution assay; conditions: ATCC 27853, 24 h
# Bacillus subtilis = assay: Antibacterial activity against penicillin-susceptible Bacillus subtilis ATCC 9372 after 24 hrs by broth dilution assay; conditions: ATCC 9372, 24 h
# Staphylococcus aureus [3] = assay: Antibacterial activity against […] Staphylococcus aureus ATCC 29213 after 24 hrs by broth dilution assay; conditions: ATCC 29213, 24 h
# Staphylococcus aureus [4] = assay: Antibacterial activity against penicillin-resistant Staphylococcus aureus ATCC 31007 after 24 hrs by broth dilution assay; conditions: ATCC 31007, 24 h
# Streptococcus pyogenes [5] = assay: Antibacterial activity against erythromycin-resistant Streptococcus pyogenes 2 after 24 hrs by broth dilution assay; conditions: Streptococcus pyogenes, 2, 24 h
# Streptococcus pneumoniae [6] = assay: Antibacterial activity against erythromycin-resistant Streptococcus pneumoniae A22072 expressing mefA gene after 24 hrs by broth dilution assay; conditions: A22072, 24 h
# Streptococcus pneumoniae [7] = assay: Antibacterial activity against erythromycin-resistant Streptococcus pneumoniae B1 expressing ermB gene after 24 hrs by broth dilution assay; conditions: B1, 24 h
# Streptococcus pneumoniae [8] = assay: Antibacterial activity against erythromycin-resistant Streptococcus pneumoniae AB11 expressing ermB and mefA genes after 24 hrs by broth dilution assay; conditions: AB11, 24 h
# Streptococcus pneumoniae [9] = assay: Potency index, ratio of CAM MIC to compound MIC for antibacterial activity against erythromycin-resistant Streptococcus pneumoniae A22072
# Streptococcus pneumoniae [10] = assay: Potency index, ratio of AZM MIC to compound MIC for antibacterial activity against erythromycin-resistant Streptococcus pneumoniae A22072
# Streptococcus pyogenes [11] = assay: Potency index, ratio of CAM MIC to compound MIC for antibacterial activity against erythromycin-resistant Streptococcus pyogenes 2
# Streptococcus pyogenes [12] = assay: Potency index, ratio of AZM MIC to compound MIC for antibacterial activity against erythromycin-resistant Streptococcus pyogenes 2
# Staphylococcus aureus [13] = assay: Potency index, ratio of CAM MIC to compound MIC for antibacterial activity against penicillin-resistant Staphylococcus aureus ATCC 31007
# Staphylococcus aureus [14] = assay: Potency index, ratio of AZM MIC to compound MIC for antibacterial activity against penicillin-resistant Staphylococcus aureus ATCC 31007
SMILES,MIC (Streptococcus pyogenes [1]),MIC (Staphylococcus aureus [2]),MIC (Escherichia coli),MIC (Pseudomonas aeruginosa),MIC (Bacillus subtilis),MIC (Staphylococcus aureus [3]),MIC (Staphylococcus aureus [4]),MIC (Streptococcus pyogenes [5]),MIC (Streptococcus pneumoniae [6]),MIC (Streptococcus pneumoniae [7]),MIC (Streptococcus pneumoniae [8]),Ratio (Streptococcus pneumoniae [9]),Ratio (Streptococcus pneumoniae [10]),Ratio (Streptococcus pyogenes [11]),Ratio (Streptococcus pyogenes [12]),Ratio (Staphylococcus aureus [13]),Ratio (Staphylococcus aureus [14])
CC[C@H]1OC(=O)[C@H](C)[C@@H](OC(=O)NC2CC2)[C@H](C)[C@@H](O[C@@H]2O[C@H](C)C[C@H](N(C)C)[C@H]2O)[C@](C)(OC)C[C@@H](C)/C(=N/OCc2ccccc2Cl)[C@H](C)[C@@H](O)[C@]1(C)O,1 µg/mL,8 µg/mL,128 µg/mL,128 µg/mL,4 µg/mL,128 µg/mL,16 µg/mL,16 µg/mL,0.125 µg/mL,128 µg/mL,128 µg/mL,16,32,,,,
CCCNC(=O)O[C@H]1[C@H](C)[C@@H](O[C@@H]2O[C@H](C)C[C@H](N(C)C)[C@H]2O)[C@](C)(OC)C[C@@H](C)/C(=N/OCc2ccccc2Cl)[C@H](C)[C@@H](O)[C@](C)(O)[C@@H](CC)OC(=O)[C@@H]1C,1 µg/mL,8 µg/mL,128 µg/mL,128 µg/mL,2 µg/mL,128 µg/mL,16 µg/mL,8 µg/mL,0.125 µg/mL,128 µg/mL,128 µg/mL,16,32,32,32,,
CC[C@H]1OC(=O)[C@H](C)[C@@H](OC(=O)NCc2ccc(Cl)cc2)[C@H](C)[C@@H](O[C@@H]2O[C@H](C)C[C@H](N(C)C)[C@H]2O)[C@](C)(OC)C[C@@H](C)/C(=N/OCc2ccccc2Cl)[C@H](C)[C@@H](O)[C@]1(C)O,2 µg/mL,8 µg/mL,128 µg/mL,128 µg/mL,2 µg/mL,128 µg/mL,4 µg/mL,8 µg/mL,0.5 µg/mL,128 µg/mL,128 µg/mL,,,32,32,64,64
CC[C@H]1OC(=O)[C@H](C)[C@@H](OC(=O)NCc2cccc(F)c2)[C@H](C)[C@@H](O[C@@H]2O[C@H](C)C[C@H](N(C)C)[C@H]2O)[C@](C)(OC)C[C@@H](C)/C(=N/OCc2ccccc2Cl)[C@H](C)[C@@H](O)[C@]1(C)O,1 µg/mL,4 µg/mL,128 µg/mL,128 µg/mL,2 µg/mL,128 µg/mL,4 µg/mL,8 µg/mL,0.5 µg/mL,128 µg/mL,128 µg/mL,,,32,32,64,64
